Experimental data as given in US7691858B2, “Kinase inhibitors and methods of use thereof” (TargeGen, Inc., priority 2006, dated 2010).
“Also recorded” adds a separate entry of the source.

What was measured:
EC = EC proliferation; assay type: cell-based; settings: inhibitors at 10 μM; 24, 48, 72 h
Experimental: Inhibition of cell proliferation and signaling. (a) EC were cultured in the presence of vehicle (DMSO) or PI3K inhibitors (all at 10 μM); cell proliferation was assessed either 24 (open bar), 48 (grey bar), or 72 h (black bar) later.
Applicants therefore compared the compounds profiled in Table 1 for their effects on cell proliferation.

Fms = target: T1, Fms (Homo sapiens, UniProt P07333); experiment: Kinase panel screen; assay type: biochemical; settings: Compound I and ATP 10 μM
T1 construct: purchased Upstate USA or Invitrogen (commercial screening service)

[1] = tested on: dextran-induced inflammatory edema; experiment: Rat hindpaw inflammation model, dextran; assay type: in vivo, Sprague Dawley rats
Experimental: FIG. 4. Inhibition of edema and inflammation. (a, b) Rats were injected i.v. with Evans blue dye and then intradermally with saline, VEGF or histamine. […] (c-f) Rat hindpaws were injected with either PAF (c & d) or dextran (e & f), and three hours later processed as H&E-stained paraffin sections. […] Images were taken of paws representing the mean group value for volume as presented in Results (original magnification 200×).
The Miles assay models a primarily endothelial-based response that develops rapidly (within minutes). As a comparator, we next employed a rodent hindpaw model where more complex inflammatory reactions develop over several hours. Agonists included PAF, a GPCR ligand that activates both EC and leukocytes, and dextran, a phagocytic stimulus for mast cell and leukocyte activation. […] Paw volume (a more quantitative measure of edema and inflammation) was reduced by 62% and 78% in response to PAF or dextran, respectively (n=8, P<0.001). Finally, to correlate these in vivo responses with the molecular target of interest, we monitored PI3K pathway signaling through Western blot analyses of Akt phosphorylation (a PI3K-mediated event).
In order to determine the influence of compounds on the development of inflammation, Sprague Dawley rats were first injected intravenously with either vehicle or test compound at 5 mg/kg, and then 30 min later either PBS (as a control), dextran or platelet activating factor (PAF) was injected into the plantar surface of the hindlimbs, dextran and PAF being known to induce localized inflammatory responses marked by edema. Three hours later, paw dimensions were measured using a caliper and paw volumes calculated; data are shown as the increase in paw volume (mm^3) as compared to controls (paws injected with PBS).

EGFR = EGFR (Homo sapiens, UniProt P00533); experiment: Kinase panel screen; assay type: biochemical; settings: Compound I and ATP 10 μM
Bmx = target: T2, Bmx (Homo sapiens, UniProt P51813); experiment: Kinase panel screen; assay type: biochemical; settings: Compound I and ATP 10 μM
T2 construct: purchased Upstate USA or Invitrogen (commercial screening service)

ErbB4 = target: T3, ErbB4 (Homo sapiens, UniProt Q15303); experiment: Kinase panel screen; assay type: biochemical; settings: Compound I and ATP 10 μM
T3 construct: purchased Upstate USA or Invitrogen (commercial screening service)

MEK1 = target: T4, MEK1 (Homo sapiens, UniProt Q02750); experiment: Kinase panel screen; assay type: biochemical; settings: Compound I and ATP 10 μM
T4 construct: purchased Upstate USA or Invitrogen (commercial screening service)

MAPKAP-K3 = target: T5, MAPKAP-K3 (Homo sapiens, UniProt Q16644); experiment: Kinase panel screen; assay type: biochemical; settings: Compound I and ATP 10 μM
T5 construct: purchased Upstate USA or Invitrogen (commercial screening service)

FGFR4 = target: T6, FGFR4 (Homo sapiens, UniProt P22455); experiment: Kinase panel screen; assay type: biochemical; settings: Compound I and ATP 10 μM
T6 construct: purchased Upstate USA or Invitrogen (contract screening service)

IGF-1R = target: T7, IGF-1R (Homo sapiens, UniProt P08069); experiment: Kinase panel screen; assay type: biochemical; settings: Compound I and ATP 10 μM
T7 construct: purchased Upstate USA or Invitrogen (commercial screening service)

myocardial infarct = experiment: Rodent model of acute myocardial infarct (LAD occlusion/reperfusion); assay type: in vivo, Sprague-Dawley rats
Experimental: A rodent model of acute myocardial infarct, in which the proximal left anterior descending coronary artery (LAD) is occluded for 60 min followed by reperfusion, was used to determine whether test agents reduced infarct size at 24 hours.
Myocardial infarcts were created in Sprague-Dawley rats (200-300 g body weight) by a 60 min occlusion of the LAD followed by LAD reperfusion. […] At 24 hr post-treatment, the ischemic zone (area at-risk, AAR) was delineated by re-ligation of the LAD followed by IV injection of alkali blue dye, after which hearts were sectioned along the short axis and stained using triphenyltetrazolium chloride to delineate viable from infarcted myocardium. Photographic images were then analyzed using morphometric software to calculate infarct area as a percent of the at-risk area.
Rodent MI model: All animal studies followed current “NIH Guidelines for the Use of Laboratory Animals” and were performed according to IACUC-approved protocols. Sprague-Dawley rats (275-300 g) were anesthetized using inhaled isoflurane after which chest walls were shaved and swabbed with iodine. Animals were then intubated and maintained on 2% isoflurane (delivered in 30% O2/70% N2), with optimal respiratory rate and stroke volumes set by a volume-controlled safety ventilator (Inspira Advanced Safety Ventilator; Harvard Apparatus, Holliston, Mass.). Body temperatures were maintained at 35-37° C. using heating pads and five-lead electrocardiograms established. For each animal, a left thoracotomy was performed at the third intercostal space, the heart was exposed and a suture snare tightened around the LAD at the point it appeared from beneath the left atrium. Ischemia was confirmed from blanching of the left ventricle (LV) as well as changes in ECG patterns. After the desired period of occlusion (60 min in the standard model), the suture snare was loosened to allow complete reperfusion (but retained in place using shallow sutures) and the chest closed in layers. […].
For infarct size determination, LAD occlusion was repeated on each animal 24 hr after the initial occlusion. The ischemic zone (area-at-risk or AAR) was then delineated by i.v. injection of Evans blue dye (5 ml of a 10% saline solution containing 100 U/ml sodium heparin). The heart was explanted, atria and right ventricle trimmed free, and the LV (septal and free walls) frozen at −20° C. to induce rigor. After thawing on ice, the LV was subdivided into six 2 mm thick sections along the short axis using a metal form to guide dissection. Heart sections were stained for 20 min in 37° C. triphenyltetrazolium chloride (TTC, 2% in 0.04 M K2HPO4/0.17 M sucrose) to delineate viable from infarcted myocardium, fixed for 20 min in 10% formalin, then rinsed in saline. For each section, photographs were taken of both anterior and posterior surfaces and these images analyzed (by personnel blinded as to treatment identity) using a morphometric software package (Image Pro Plus; Media Cybernetics, Silver Spring, Md.). The following areas were calculated, based on their differing pixel densities: non-ischemic zone (Evans blue-stained), viable-but-ischemic zone (free of Evans blue but TTC-stained), and infarct-within-ischemic zone (free of both Evans blue and TTC stain). Area values for anterior and posterior views were averaged, and these values used to calculate the following AAR=Viable-but-ischemic Area+Infarct Area Equation 1 Total LV Area=AAR+Non-ischemic Area Equation 2

T4 sequence (Q02750 whole entry): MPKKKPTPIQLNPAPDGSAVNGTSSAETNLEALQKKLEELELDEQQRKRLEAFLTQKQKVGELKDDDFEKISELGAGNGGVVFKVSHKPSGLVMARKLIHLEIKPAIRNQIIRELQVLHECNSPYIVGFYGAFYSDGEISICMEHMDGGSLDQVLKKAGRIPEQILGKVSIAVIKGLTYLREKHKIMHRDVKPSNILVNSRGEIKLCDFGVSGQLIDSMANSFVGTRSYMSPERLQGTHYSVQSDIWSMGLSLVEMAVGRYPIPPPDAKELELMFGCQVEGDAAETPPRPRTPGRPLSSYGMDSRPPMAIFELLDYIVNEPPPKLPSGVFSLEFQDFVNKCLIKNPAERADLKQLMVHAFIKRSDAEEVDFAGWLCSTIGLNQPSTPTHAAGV
T2 sequence (P51813 whole entry): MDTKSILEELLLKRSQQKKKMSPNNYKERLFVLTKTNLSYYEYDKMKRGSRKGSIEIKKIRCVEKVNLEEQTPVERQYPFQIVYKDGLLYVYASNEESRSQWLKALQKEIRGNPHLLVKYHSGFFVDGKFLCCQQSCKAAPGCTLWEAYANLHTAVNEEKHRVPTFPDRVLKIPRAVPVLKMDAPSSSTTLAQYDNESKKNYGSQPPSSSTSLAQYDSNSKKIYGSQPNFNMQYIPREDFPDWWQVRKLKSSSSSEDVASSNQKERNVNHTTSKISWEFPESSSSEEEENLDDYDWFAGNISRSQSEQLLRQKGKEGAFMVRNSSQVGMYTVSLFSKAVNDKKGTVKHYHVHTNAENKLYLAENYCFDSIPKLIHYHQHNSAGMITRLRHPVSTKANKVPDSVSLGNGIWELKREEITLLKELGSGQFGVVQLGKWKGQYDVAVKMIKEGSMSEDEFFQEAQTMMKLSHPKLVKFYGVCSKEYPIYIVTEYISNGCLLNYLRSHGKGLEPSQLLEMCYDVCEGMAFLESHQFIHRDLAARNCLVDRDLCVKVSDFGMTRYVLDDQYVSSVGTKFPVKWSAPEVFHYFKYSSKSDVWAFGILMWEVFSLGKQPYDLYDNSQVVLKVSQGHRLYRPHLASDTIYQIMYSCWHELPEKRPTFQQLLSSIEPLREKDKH
T3 sequence (Q15303 26-1308): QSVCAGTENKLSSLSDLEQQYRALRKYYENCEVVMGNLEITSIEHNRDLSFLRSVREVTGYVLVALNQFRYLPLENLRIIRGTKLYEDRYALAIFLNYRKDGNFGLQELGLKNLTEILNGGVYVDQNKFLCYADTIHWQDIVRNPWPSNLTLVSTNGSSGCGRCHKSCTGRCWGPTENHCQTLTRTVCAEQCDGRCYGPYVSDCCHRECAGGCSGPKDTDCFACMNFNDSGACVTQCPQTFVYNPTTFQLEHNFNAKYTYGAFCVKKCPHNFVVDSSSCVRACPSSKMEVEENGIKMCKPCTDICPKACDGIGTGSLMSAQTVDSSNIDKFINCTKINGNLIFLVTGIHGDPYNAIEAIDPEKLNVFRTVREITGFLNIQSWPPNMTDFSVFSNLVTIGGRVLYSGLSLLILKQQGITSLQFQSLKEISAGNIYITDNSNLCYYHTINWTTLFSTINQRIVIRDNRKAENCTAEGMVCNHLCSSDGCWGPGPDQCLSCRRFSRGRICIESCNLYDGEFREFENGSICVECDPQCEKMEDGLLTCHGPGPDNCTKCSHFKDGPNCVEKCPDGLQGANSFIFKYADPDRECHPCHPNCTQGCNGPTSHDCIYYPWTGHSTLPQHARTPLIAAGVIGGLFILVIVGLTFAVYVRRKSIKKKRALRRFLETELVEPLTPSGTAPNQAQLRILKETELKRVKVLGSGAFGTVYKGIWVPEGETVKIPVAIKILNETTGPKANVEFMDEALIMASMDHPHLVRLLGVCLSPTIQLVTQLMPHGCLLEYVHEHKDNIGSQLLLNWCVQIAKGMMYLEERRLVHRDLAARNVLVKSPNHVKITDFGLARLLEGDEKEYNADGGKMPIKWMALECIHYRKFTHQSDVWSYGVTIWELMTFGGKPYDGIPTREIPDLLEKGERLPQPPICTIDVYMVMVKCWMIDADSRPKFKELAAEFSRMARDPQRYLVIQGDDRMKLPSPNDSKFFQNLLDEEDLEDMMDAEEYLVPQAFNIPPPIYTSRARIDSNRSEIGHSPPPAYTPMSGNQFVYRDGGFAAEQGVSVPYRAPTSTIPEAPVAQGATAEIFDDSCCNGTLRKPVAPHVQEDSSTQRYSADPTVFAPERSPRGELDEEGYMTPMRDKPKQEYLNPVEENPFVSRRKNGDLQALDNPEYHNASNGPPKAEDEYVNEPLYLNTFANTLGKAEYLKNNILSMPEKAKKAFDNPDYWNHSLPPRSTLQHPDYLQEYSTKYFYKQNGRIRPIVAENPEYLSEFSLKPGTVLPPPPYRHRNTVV
T5 sequence (Q16644 whole entry): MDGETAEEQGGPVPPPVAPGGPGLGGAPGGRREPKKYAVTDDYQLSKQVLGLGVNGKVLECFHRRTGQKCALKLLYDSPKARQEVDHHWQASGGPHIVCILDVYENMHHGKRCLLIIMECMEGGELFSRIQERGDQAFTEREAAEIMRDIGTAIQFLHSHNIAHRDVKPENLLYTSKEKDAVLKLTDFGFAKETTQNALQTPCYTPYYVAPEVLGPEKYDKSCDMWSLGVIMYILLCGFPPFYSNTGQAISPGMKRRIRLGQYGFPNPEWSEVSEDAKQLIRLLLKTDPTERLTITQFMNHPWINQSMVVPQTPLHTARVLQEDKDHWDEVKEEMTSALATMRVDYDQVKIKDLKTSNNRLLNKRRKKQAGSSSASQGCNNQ
T6 sequence (P22455 22-802): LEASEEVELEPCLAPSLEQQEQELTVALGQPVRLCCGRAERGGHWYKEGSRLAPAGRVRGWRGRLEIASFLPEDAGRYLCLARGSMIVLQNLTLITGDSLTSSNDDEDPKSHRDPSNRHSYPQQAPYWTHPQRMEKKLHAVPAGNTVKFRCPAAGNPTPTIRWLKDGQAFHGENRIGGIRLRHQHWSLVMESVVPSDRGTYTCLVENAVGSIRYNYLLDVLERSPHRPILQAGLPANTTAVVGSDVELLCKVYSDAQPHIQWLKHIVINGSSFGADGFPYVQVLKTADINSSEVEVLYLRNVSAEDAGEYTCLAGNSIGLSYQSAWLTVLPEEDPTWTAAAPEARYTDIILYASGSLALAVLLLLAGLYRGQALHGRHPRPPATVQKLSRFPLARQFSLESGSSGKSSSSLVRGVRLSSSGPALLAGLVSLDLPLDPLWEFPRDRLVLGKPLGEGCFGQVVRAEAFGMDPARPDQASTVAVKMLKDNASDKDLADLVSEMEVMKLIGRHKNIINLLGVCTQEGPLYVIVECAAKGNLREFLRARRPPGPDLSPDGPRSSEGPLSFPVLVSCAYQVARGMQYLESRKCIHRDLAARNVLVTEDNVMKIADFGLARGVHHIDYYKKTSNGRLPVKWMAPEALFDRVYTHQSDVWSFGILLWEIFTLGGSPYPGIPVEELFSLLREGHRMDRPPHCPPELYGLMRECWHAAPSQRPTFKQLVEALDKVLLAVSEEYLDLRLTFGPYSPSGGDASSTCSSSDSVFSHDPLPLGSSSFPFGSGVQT
Sequence of EGFR (P00533 25-1210): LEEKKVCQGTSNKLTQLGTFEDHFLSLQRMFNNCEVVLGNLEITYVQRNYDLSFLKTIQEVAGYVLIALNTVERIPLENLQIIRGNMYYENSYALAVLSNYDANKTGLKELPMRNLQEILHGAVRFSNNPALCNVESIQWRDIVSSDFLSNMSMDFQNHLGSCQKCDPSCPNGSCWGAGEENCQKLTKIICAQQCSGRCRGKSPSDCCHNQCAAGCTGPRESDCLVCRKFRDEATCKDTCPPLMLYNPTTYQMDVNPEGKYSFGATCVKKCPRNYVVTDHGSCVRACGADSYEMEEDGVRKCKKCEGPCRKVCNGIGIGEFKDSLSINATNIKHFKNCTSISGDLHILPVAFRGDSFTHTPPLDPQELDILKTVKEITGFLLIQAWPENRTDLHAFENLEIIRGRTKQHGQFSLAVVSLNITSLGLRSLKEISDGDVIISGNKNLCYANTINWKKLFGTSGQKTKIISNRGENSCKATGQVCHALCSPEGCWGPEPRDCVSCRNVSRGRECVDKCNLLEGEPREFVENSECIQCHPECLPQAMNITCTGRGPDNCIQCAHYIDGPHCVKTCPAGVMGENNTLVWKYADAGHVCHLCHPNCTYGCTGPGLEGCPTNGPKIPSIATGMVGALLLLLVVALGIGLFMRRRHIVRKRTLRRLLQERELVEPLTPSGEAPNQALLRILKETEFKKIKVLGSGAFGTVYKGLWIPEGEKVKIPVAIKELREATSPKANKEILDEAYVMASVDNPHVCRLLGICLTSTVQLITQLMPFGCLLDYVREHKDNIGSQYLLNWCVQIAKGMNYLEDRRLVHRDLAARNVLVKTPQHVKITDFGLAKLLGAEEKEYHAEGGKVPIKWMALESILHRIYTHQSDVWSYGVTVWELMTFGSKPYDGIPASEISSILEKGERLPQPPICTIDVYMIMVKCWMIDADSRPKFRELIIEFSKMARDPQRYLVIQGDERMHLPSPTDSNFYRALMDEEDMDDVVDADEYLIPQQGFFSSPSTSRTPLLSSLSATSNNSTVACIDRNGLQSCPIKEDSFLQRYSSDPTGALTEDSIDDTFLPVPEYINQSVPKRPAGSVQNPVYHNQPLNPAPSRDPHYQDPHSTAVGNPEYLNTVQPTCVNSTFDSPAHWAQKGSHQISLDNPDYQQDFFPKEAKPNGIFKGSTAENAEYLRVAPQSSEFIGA

## Nc1nc(N)c2nc(-c3cccc(O)c3)c(-c3cccc(O)c3)nc2n1 [Compound I, 6,7-bis-(3-hydroxyphenyl)-pteridine-2,4-diamine]
EC
  effect on EC proliferation: no effects
Fms
  Percent Control, Fms: 77%
[1]; Dextran, 5 mg/kg iv 30 min before, 3 hours, mean±SEM N=6, vehicle 148 ± 6
  Increase in Paw Volume vs. Controls: 32 ± 5 mm^3
[1]; dextran, 5 mg/kg pretreatment, three hours
  edema and leukocyte infiltration (histology): strongly antagonized; also recorded: blocked
[1]; dextran, n=8
  reduction of paw volume: 78%
EGFR
  Percent Control, EGFR: 99%
Bmx
  Percent Control, Bmx: 58%
ErbB4
  Percent Control, ErbB4: 40%
MEK1
  Percent Control, MEK1: 94%
MAPKAP-K3
  Percent Control, MAPKAP-K3: 93%
FGFR4
  Percent Control, FGFR4: 94%
IGF-1R
  Percent Control, IGF-1R: 104%
Myocardial infarct; 0.1 mg/kg, delivery between 0 and 3 h post-reperfusion (FIG. 6b)
  reductions in infarct development vs. vehicle-treated controls: 58-67%
Myocardial infarct; rats, 0.3 mg/kg IV bolus 60 min into reperfusion, 24 hr, N=8
  reduction in infarct size vs. vehicle controls: 43%
Myocardial infarct; rats, 0.3 mg/kg IV bolus 60 min into reperfusion, mean±SD (±9), vehicle 62%±7
  infarct area as percentage of ischemic territory: 35%
Myocardial infarct; single 0.5 mg/kg bolus one hour post-reperfusion, 4 weeks
  improvement in fractional shortening: 24%
Myocardial infarct; single 0.5 mg/kg bolus one hour post-reperfusion, echocardiography 4 weeks, mean±SEM, vehicle 27.2±1.9
  percent left ventricular long axis fractional shortening: 33.6±2.0%
Myocardial infarct; single i.v. bolus 60 mm post-reperfusion
  reduction of infarct size: ≥ 40%
